Where no end group is shown, it is not given here.
Legend:
[1] = test system: Vancomycin resistant E. faecalis (VREF); format: cell-based, Enterococcus faecalis; details: broth microdilution (CLSI), 64 to 0.125 μg/mL, 24 h at 35 °C, human clinical isolate
Description: (§1) Tissue expression of devil cathelicidin prepropeptides was determined by real-time PCR on a range of secretory, immune, reproductive, gastrointestinal and respiratory tissues, as well as BLAST searches of the milk transcriptome. Opportunistic tissue samples for real-time PCR were collected from Taronga Zoo (Sydney) from devils which were subject to euthanasia due to old age and advanced disease. The mature peptides of all six devil cathelicidins were synthesised by ChinaPeptides Co. Ltd. and their antimicrobial activity against bacterial and fungal pathogens determined by broth microdilution susceptibility assay according to clinical laboratory standards institute guidelines. Antimicrobial activity was expressed as minimum inhibitory concentration (MIC). Cytotoxicity was assessed in the human cell line A549 and haemolytic activity determined against human blood. Statistical significance of peptide effect on cell survival in comparison to the untreated control was calculated using a one sample t-test. Pouch microbiome analysis was performed on swabs from the pouch of lactating and non-lactating devils to detect changes in microbe populations. Pouch swab collection was carried out in accordance with the Save the Tasmanian Devil Program and was approved by the Animal Ethics Committee of the University of Sydney (permit number 681). […]
(§2) base (YNB) for fungi, from a concentration of 64μg/mL to 0.125μg/mL in a final volume of 100 μL .
(§3) Two antibiotics, ampicillin and tetracycline, were included as a positive control for bacteria, and the antifungal drug fluconazole for fungi. A well containing cells and media only was used as a “no drug” control to ensure that cultures grew normally. Bacteria were subcultured on Mueller Hinton agar (MHA) or Sheep blood agar (BA) for 24 hours at 35 °C for Staphylococcus spp., Pseudomonas spp., Enterococcus spp. and E.coli, with 5% CO2 for Streptococcus spp., K.pneumoniae, P.multocida, L.monocytogenes and N.asteroides. Similarly, fungi were subcultured on Sabouraud agar (SAB) at 35 °C for 24 hours prior to the test. Colonies were resuspended in saline and the OD530 measured with a McFarland reader. If necessary the suspension was diluted to 0.45-0.55 McFarland units with saline. Following a 1:150 dilution for bacteria and twostep dilution for fungi (1:50, 1:20), 100 μL of microorganisms (1x106 – 5 x10^5 cells/mL) were pipetted into wells 2-12, the first well acting as a negative control. Colony counts were performed using a 1:1000 dilution for bacteria and 1:10 for fungi spread onto MHA/BA or SAB plates respectively. The 96 well microdilution and agar plates were incubated for 24 hours at 35 °C (Escherichia coli, Staphylococcus spp., Enterococcus spp. and Pseudomonas spp.), with 5% CO2 (Streptococcus spp. Pasteurella multocida, Klebsiella pneumoniae, Listeria monocytogenes a nd Nocardia asteroids) for bacteria, and 35 °C for 48 hours (Candida spp .) or 72 hours (Cryptococcus spp.) for fungi. Assays Antimicrobial activity was expressed as minimum inhibitory concentration (MIC), which was defined as the lowest concentration of cathelicidin preventing visible growth, relative to the negative control. […]
(§4) DMEM and positive control of dimethylsulfoxide (DMSO) (1%) were also included. Following incubation for a further 24 hours, cell viability was determined using alamar blue (Invitrogen) which was added to each well. The plates were incubated for 24 hours, then the absorption measured at 570nm and 620nm using the Victor 3 multilabel plate reader (PerkinElmer). The assay was performed on two separate occasions. To x i city of cathelicidins was calculated according to Invitrogen recommendations and expressed as percentage cell survival compared to the untreated growth control. A significant difference between cathelicidin treated and control cell survival was tested using a o ne sample t-test (p<0.05).
(§5) Haemolytic activity was assessed using 10mL of human blood collected into potassium -ED T A […]
(§6) vacutainers (BD). […]

E. faecalis = format: cell-based, Enterococcus faecalis; details: broth microdilution (CLSI), 64 to 0.125 μg/mL, 24 h at 35 °C; human clinical isolate
Description: as §1, §2, §3, §4, §5, §6

[2] = test system: S. dysgalactiae subs. equisimilis; format: cell-based; details: broth microdilution (CLSI), 64 to 0.125 μg/mL, 24 h at 35 °C with 5% CO2; human clinical isolate
Description: as §1, §2, §3, §4, §5, §6

S. pyogenes ATCC 19615 = format: cell-based; details: broth microdilution (CLSI), 64 to 0.125 μg/mL, 24 h at 35 °C with 5% CO2; ATCC strain
Description: as §1, §2, §3, §4, §5, §6

N. asteroides* = format: cell-based; details: broth microdilution (CLSI), 64 to 0.125 μg/mL, 24 h at 35 °C with 5% CO2; animal isolate
Description: as §1, §2, §3, §4, §5, §6

S. anginosus = format: cell-based; details: broth microdilution (CLSI), 64 to 0.125 μg/mL, 24 h at 35 °C with 5% CO2; human clinical isolate
Description: as §1, §2, §3, §4, §5, §6

C. glabrata = format: cell-based; details: broth microdilution (CLSI), YNB, 64 to 0.125 μg/mL, 48 hours at 35 °C; human clinical isolate
Description: as §1, §2, §3, §4, §5, §6

S. agalactiae = format: cell-based; details: broth microdilution (CLSI), 64 to 0.125 μg/mL, 24 h at 35 °C with 5% CO2; human clinical isolate
Description: as §1, §2, §3, §4, §5, §6

S. lutetiensis = format: cell-based; details: broth microdilution (CLSI), 64 to 0.125 μg/mL, 24 h at 35 °C with 5% CO2; human clinical isolate
Description: as §1, §2, §3, §4, §5, §6

S. mutans = format: cell-based; details: broth microdilution (CLSI), 64 to 0.125 μg/mL, 24 h at 35 °C with 5% CO2; human clinical isolate
Description: as §1, §2, §3, §4, §5, §6

C. albicans = format: cell-based; details: broth microdilution (CLSI), YNB, 64 to 0.125 μg/mL, 48 hours at 35 °C; human clinical isolate
Description: as §1, §2, §3, §4, §5, §6

S. agalactiae ATCC 12386 = format: cell-based; details: broth microdilution (CLSI), 64 to 0.125 μg/mL, 24 h at 35 °C with 5% CO2; ATCC strain
Description: as §1, §2, §3, §4, §5, §6

S. oralis/mitis group = format: cell-based; details: broth microdilution (CLSI), 64 to 0.125 μg/mL, 24 h at 35 °C with 5% CO2; human clinical isolate
Description: as §1, §2, §3, §4, §5, §6

S. salivarius = format: cell-based; details: broth microdilution (CLSI), 64 to 0.125 μg/mL, 24 h at 35 °C with 5% CO2; human clinical isolate
Description: as §1, §2, §3, §4, §5, §6

S. equi* = format: cell-based; details: broth microdilution (CLSI), 64 to 0.125 μg/mL, 24 h at 35 °C with 5% CO2; animal isolate
Description: as §1, §2, §3, §4, §5, §6

C. gattii = format: cell-based, Cryptococcus gattii; details: broth microdilution (CLSI), YNB, 64 to 0.125 μg/mL, 72 hours at 35 °C; human clinical isolate
Description: as §1, with “t-test.” for “t-test. Pouch microbiome analysis was performed on swabs from the pouch of lactating and non-lactating devils to detect changes in microbe populations. Pouch swab collection was carried out in accordance with the Save the Tasmanian Devil Program and was approved by the Animal Ethics Committee of the University of Sydney (permit number 681).”
Two antibiotics, ampicillin and tetracycline, were included as a positive control for bacteria, and the antifungal drug fluconazole for fungi. […] Colonies were resuspended in saline and the OD530 measured with a McFarland reader. […] Assays Antimicrobial activity was expressed as minimum inhibitory concentration (MIC), which was defined as the lowest concentration of cathelicidin preventing visible growth, relative to the negative control. […]
as §4, with “The assay was performed on two separate occasions.” left out, “A significant difference between cathelicidin treated and control cell survival was tested using a o ne sample t-test (p<0.05).” left out
as §5

P. aeruginosa ATCC 27853 = test: microbe, parasite or virus in culture; format: cell-based, Pseudomonas aeruginosa; details: ATCC 27853, 24 h
Description: as §1, §2
Two antibiotics, ampicillin and tetracycline, were included as a positive control for bacteria, and the antifungal drug fluconazole for fungi. A well containing cells and media only was used as a “no drug” control to ensure that cultures grew normally. Bacteria were subcultured on Mueller Hinton agar (MHA) or Sheep blood agar (BA) for 24 hours at 35 °C for Staphylococcus spp., Pseudomonas spp., Enterococcus spp. and E.coli, with 5% CO2 for Streptococcus spp., K.pneumoniae, P.multocida, L.monocytogenes and N.asteroides. Similarly, fungi were subcultured on Sabouraud agar (SAB) at 35 °C for 24 hours prior to the test. Colonies were resuspended in saline and the OD530 measured with a McFarland reader. If necessary the suspension was diluted to 0.45-0.55 McFarland units with saline. […] Assays Antimicrobial activity was expressed as minimum inhibitory concentration (MIC), which was defined as the lowest concentration of cathelicidin preventing visible growth, relative to the negative control. […]
570nm and 620nm using the Victor 3 multilabel plate reader (PerkinElmer). […] To x i city of cathelicidins was calculated according to Invitrogen recommendations and expressed as percentage cell survival compared to the untreated growth control. […]
Haemolytic activity was assessed using 10mL of human blood collected into potassium -ED T A vacutainers (BD). […]

In the case of KRIGLIRLIGKILRGLRRLG [Saha-CATH5], the MIC [1] is reported as 32 µg/mL, the MIC (E. faecalis) is reported as over 64 µg/mL and the MIC [2] is reported as over 64 µg/mL. It also gave an MIC (S. pyogenes ATCC 19615) of 32 µg/mL, an MIC (N. asteroides*) of over 64 µg/mL and an MIC (S. anginosus) of 32 µg/mL. It also gave an MIC (C. glabrata) of over 64 µg/mL, an MIC (S. agalactiae) of 64 µg/mL and an MIC (S. lutetiensis) of over 64 µg/mL. It also gave an MIC (S. mutans) of over 64 µg/mL, an MIC (C. albicans) of over 64 µg/mL and an MIC (S. agalactiae ATCC 12386) of 64 µg/mL. For the same sequence, the MIC (S. oralis/mitis group) was 64 µg/mL, the MIC (S. salivarius) was over 64 µg/mL and the MIC (S. equi*) was 64 µg/mL. It also gave an MIC (C. gattii) of 64 µg/mL and an MIC (P. aeruginosa ATCC 27853) of over 64 µg/mL.

Work on “KRIRFFERIRDRLRDLGNRIKNRIRDFFS [Saha-CATH6]” yielded an MIC [1] of 64 µg/mL, an MIC (E. faecalis) of over 64 µg/mL and an MIC [2] of over 64 µg/mL. For the same sequence, the MIC (S. pyogenes ATCC 19615) was 64 µg/mL, the MIC (N. asteroides*) was over 64 µg/mL and the MIC (S. anginosus) was 64 µg/mL. The MIC (C. glabrata) was over 64 µg/mL, the MIC (S. agalactiae) was over 64 µg/mL and the MIC (S. lutetiensis) was over 64 µg/mL. For the same sequence, the MIC (S. mutans) was over 64 µg/mL, the MIC (C. albicans) was over 64 µg/mL and the MIC (S. agalactiae ATCC 12386) was 64 µg/mL. The MIC (S. oralis/mitis group) was 64 µg/mL, the MIC (S. salivarius) was over 64 µg/mL and the MIC (S. equi*) was over 64 µg/mL. For the same sequence, the MIC (C. gattii) was 64 µg/mL and the MIC (P. aeruginosa ATCC 27853) was over 64 µg/mL.

In the case of “KRMGIFHLFWAGLRKLGNLIKNKIQQGIENFLG [Saha-CATH3]”, the MIC [1] is reported as over 64 µg/mL, the MIC (E. faecalis) is reported as over 64 µg/mL and the MIC [2] is reported as over 64 µg/mL. For the same sequence, the MIC (S. pyogenes ATCC 19615) was over 64 µg/mL, the MIC (N. asteroides*) was over 64 µg/mL and the MIC (S. anginosus) was over 64 µg/mL. The MIC (C. glabrata) was over 64 µg/mL, the MIC (S. agalactiae) was over 64 µg/mL and the MIC (S. lutetiensis) was over 64 µg/mL. It also gave an MIC (S. mutans) of over 64 µg/mL, an MIC (C. albicans) of over 64 µg/mL and an MIC (S. agalactiae ATCC 12386) of over 64 µg/mL. The MIC (S. oralis/mitis group) was over 64 µg/mL, the MIC (S. salivarius) was over 64 µg/mL and the MIC (S. equi*) was over 64 µg/mL. It also gave an MIC (C. gattii) of over 64 µg/mL and an MIC (P. aeruginosa ATCC 27853) of over 64 µg/mL.

From article PMC5057115, “Cathelicidins in the Tasmanian devil (Sarcophilus harrisii)” (Scientific Reports, 2016)
